Test results reported in US20170327556A1, “CARTILAGE-BINDING FUSION PROTEINS” (Merrimack Pharmaceuticals, Inc., priority 2013, published 2017).

Experiments:
BXPC-3 cells = test: Stimulation of AKT phosphorylation in BXPC-3 cells (pAKT ELISA); assay type: cell-based; conditions: 10 min stimulation, doses in M (Table 4), 6x-Histidine-tagged fusion proteins
Protocol: Fusion proteins comprising IGF-1 and a cartilage matrix binding domain were prepared as described above. Six fusion proteins were prepared: GF-Fus1 (6x-Histidine-tagged), GF-Fus2(6x-Histidine-tagged), GF-Fus3 (6x-Histidine-tagged), GF-Fus4 (6x-Histidine-tagged), GF-Fus5 (6x-Histidine-tagged), and GF-Fus6 (6x-Histidine-tagged). In order to ensure that the growth factor portion of the fusion protein was active in the fusion proteins, each construct was tested for its ability to stimulate AKT phosphorylation. Wild-type IGF-1 (wtIGF) was included as a control. Bovine chondrocytes were stimulated with a range of doses of each fusion protein, and pAKT levels were measured by ELISA.
For ligand stimulation, chondrocytes were seeded at 200,000 cells/well into 96-well tissue culture plates with 100 μL of chondrocyte culture medium with fetal bovine serum (10% v/v, Life Technologies Cat#16140071). Alternatively, BXPC-3 cells, a pancreatic adenocarcinoma cell line (ATCC® CRL-1687™), were seeded at 30,000 cells/well into 96-well tissue culture plates with 100 μL of BXPC-3 medium (RPMI-1640, e.g., ATCC® 30-2001™), with L-glutamine (2 mM), Penicillin-Streptomycin (1×, Gibco® 15140-122), Fetal Bovine Serum (10% v/v, Life Technologies Cat#16140071)). After 24 hrs, both chondrocytes and BXPC-3 cells were rinsed with 100 μL of sterile PBS (pH=7.4) per well and 100 μl of chondrocyte or BXPC-3 culture medium (without fetal bovine serum) was added to the corresponding cell type. After an additional 24 hrs, cells were stimulated with the doses of fusion proteins set forth in Table 4 by adding 25 μL of fusion protein at a concentration 5 times greater than the concentration listed in Table 4 to the 100 μL of medium already in the wells. After 10 min of stimulation, fusion protein was removed and wells were rinsed in ice cold PBS (pH=7.4). 50 μL/well of cell extraction buffer (Invitrogen cat# FNN0011) was added and incubated with shaking at 4° C. for 30 minutes. Lysates were then frozen at −80° C.
Corning high binding 384 well black ELISA plates (cat#3577) are coated with 30 μL of capture antibody at 4 μg/mL (anti-AKT1 total capture antibody, Upstate, Cat#05-591MG) in PBS (pH=7.4) for 16 hours at room temperature, washed and blocked with […] 2% bovine serum albumin (Sigma Cat# A3294) in PBS (pH=7.4) for 1 hour at room temperature. 20 μL of thawed lysates or recombinant pAKT standards (ten 2-fold serial dilutions of 400 ng recombinant human AKT, active (Upstate, Cat#14-276) in PBS (pH=7.4) containing 50% v/v Cell extraction buffer (Invitrogen Cat#FNN0011), 1% bovine serum albumin (Sigma Cat# A3294), 0.05% Tween20) are applied to the coated plate and incubated for 2 hours at room temperature. After washing 3 times with 100 μL/well of 0.05% Tween-20/PBS (pH=7.4) bound phospho-AKT is detected using Phospho-AKT (Ser473)(587F11)-biotinylated (Cell Signaling, Cat#5102), streptavidin-HRP (R&D Systems Cat# DY998, Part #890803), SuperSignal ELISA PicoChemiluminescent Substrate (Thermo Scientific Cat#37069), using a luminometer to detect light emissions at 425 nm.

[1] = tested on: human ankle and knee cartilage explants; test: In vitro joint disease model, explanted human cartilage: ^35S-sulfate incorporation; assay type: cell-based; conditions: for sulfated matrix biosynthesis in the absence of cytokines, 16 day combination with Dexamethasone: FIG. 14E black bars; for ^35S-sulfate incorporation, 16 D treatment: protein 16 days in combination with Anti-Infl-1, cytokines, versus Disease control
Protocol: Human cartilage explants are harvested from the knee and ankle of human cadaver donors within 24 hours postmortem. Joints are aseptically dissected by a pathologist to assess gross cartilage morphology by the modified Collins scale (Kuettner, et al., Cartilage degeneration in different human joints. Osteoarthritis Cartilage. 2005; 13(2):93-103) and only grade 0 or 1 joints are used. Full-thickness knee cartilage surfaces are harvested from the femoral-patellar groove and chondyles using a scalpel. Full thickness ankle cartilage is harvested from the dome of talus, proximal area under dome of talus, head of the talus, tibial malleolus and fibular malleolus using a scalpel. Using a 4 mm diameter disposable biopsy punch, full thickness cartilage cores are punched from the cartilage surfaces keeping the superficial zone intact and used as explants in culture.
Explants are cultured in 96-well plates in 300 μL of low glucose DMEM (1× Gibco 11885-084) with added Penicillin-Streptomycin (1×, Gibco 15140-122), ascorbic acid (20 μg/mL, Sigma A4403), proline (400 μM, Sigma P5607-256), non-essential amino acids (1×, Sigma M7145), and HEPES ([…], Gibco 15630-080). Explants from 2-3 donors (4-6 explants per donor) are used for each treatment condition for a total explant number of 12-18 per condition. Donor ages were: 67 year male ankle, 71 year male ankle, 76 year female ankle, 59 year male knee, 34 year male knee, and 63 year female knee. Medium is changed every 2 days. On day 14, the medium is supplemented with 5 μCi/mL of ^35S-sodium sulfate (Perkin Elmer NEX041H005MC, 5 mCi).
Time points are taken at day 16 as follows. Explant tissue is washed four times for 30 min each (2 hr total) in 1 mM unlabeled sodium sulfate in PBS. Each explant is weighed wet and frozen at −20° C. until digestion. Tissue digestion is performed with Proteinase K (Roche cat #3115879001) and each explant is digested in 1 mL 500 μg/mL Proteinase K in 50 mM Tris-HCL, 1 mM calcium chloride pH=8.0 buffer at 60° C. overnight. Measurement of sGAG content and DNA content is performed using standard assay methods such as those described in Hoemann, 2004, Methods in Molecular Medicine: Cartilage and Osteoarthritis. Totowa, N.J.: Humana Press Inc.; p. 127-52. ^35S-sulfate content of the digested cartilage explants is quantified by mixing 20 μL of digest with 250 μL of scintillation fluid (Perkin Elmer cat #1200-439) and counting with A WALLAC 1450 MICROBETA TRILUX scintillation counter.
Treatments were given at the following concentrations: GF-Fus1 13.3 nM=135 ng/mL; and GF-Fus3 13.3 nM=181 ng/mL; Dexamethasone 100 nM=39.2 ng/mL. Growth factor and steroid treatment conditions included the cytokines TNF-alpha (R&D Systems, Cat#210-TA, 25 ng/mL), IL-6 (R&D Systems, Cat#206-IL, 50 ng/mL), and IL-6R alpha (R&D Systems, Cat#227-SR, 250 ng/mL) which were supplied in each medium change. GF-Fus1 and GF-Fus3 were added to fresh medium for either the first 8 days (8 D) or the entire 16 day culture duration (16 D), whereas Dexamethasone was added for the entire 16 days in all cases. Controls were either no cytokines (Healthy) or with cytokines alone (Disease). The outcomes measured from the cartilage explants at day 16 were ^35S-sulfate incorporation, DNA, and sGAG content, and sGAG released to media for all media changes.

Q: For “GF-Fus6: IGF-1(LR3) fused to CNA344 CB domain”, which “logEC50 Mean” value (BXPC-3 cells) is on record?
A: −8.832

Q: With “wtIGF: Wild-type IGF-1 (R&D systems 291-G1), control [reference compound]” as the substance, how does the “logEC50 Mean” value (BXPC-3 cells) read?
A: −9.081

Q: “GF-Fus1: IGF-1 variant polypeptide Long [R^3]-IGF-1, no fused binding domain; used 6x-Histidine-tagged as control [reference compound]” was tested. Which “sulfated matrix biosynthesis in the absence of cytokines, 16 day combination with Dexamethasone” value ([1]; human knee chondyle cartilage) did it give?
A: restores sulfated matrix biosynthesis to a level at or above healthy controls

Q: What about the “^35S-sulfate incorporation, 16 D treatment” value ([1]; FIGS. 14A-D) of the same substance?
A: stimulated

Q: And the “logEC50 Mean” value (BXPC-3 cells)?
A: −8.605

Q: With “GF-Fus5: IGF-1(LR3) fused to CNA35 CB domain” as the substance, how does the “logEC50 Mean” value (BXPC-3 cells) read?
A: −8.969

Q: For “GF-Fus3: C-terminal fusion IGF-1(LR3)-PRELP heparin binding domain”, which “synthesis of new sulfated cartilage matrix (^35S-sulfate incorporation)” value ([1]; 13.3 nM, 16 days with cytokines, with and without Dexamethasone, versus Disease) is on record?
A: upregulates

Q: What about the “sulfated matrix biosynthesis in the absence of cytokines, 16 day combination with Dexamethasone” value ([1]; human knee chondyle cartilage) of the same substance?
A: restores sulfated matrix biosynthesis to a level at or above healthy controls

Q: And the “^35S-sulfate incorporation, 16 D treatment” value ([1]; FIGS. 14A-D)?
A: stimulated

Q: And the “^35S-sulfate incorporation, 8 D treatment” value ([1]; protein first 8 days only, Anti-Infl-1 16 days, cytokines, measured final 48 hours of 16 day culture, FIGS. 14A-D)?
A: equivalent or superior potency to the continuously delivered proteins

Q: And the “sulfated matrix biosynthesis in the absence of cytokines, protein removed for the final 8 days” value ([1]; with Dexamethasone 16 days, human knee chondyle cartilage, FIG. 14E white bars)?
A: sustains sulfated matrix biosynthesis at the level equivalent to continuous 16 day treatment

Q: What about the “logEC50 Mean” value (BXPC-3 cells) of the same substance?
A: −9.231
